Assay results as given in patent US12653801B2, “Digestive lipase activity inhibitor, blood triglyceride concentration increase inhibitor, and fat absorption inhibitor” (Pharma Foods International Co., Ltd., priority 2020, dated 2026).
Values belong to the compound of their own block, whether it stands above or below them.

Key:
[1] = test system: digestive lipase solution (mixture of pancreatic lipase, intestinal lipase, and the like) from rat intestinal acetone powder; test: Test 1: digestive lipase activity inhibition test with linoleic acid and oleic acid (Lipase Kit S, absorbance 412 nm); format: biochemical; conditions: DMSO solution
Description: 30 mL of 0.1 M citrate buffer solution (pH 6.0) was added to 30 mg of rat intestinal acetone powder (manufactured by SIGMA Corporation), shaken in ice for 1 hour, and centrifuged at 4° C. and 10,000 rpm for 45 minutes, to obtain a digestive lipase solution. The digestive lipase solution is a mixture of pancreatic lipase, intestinal lipase, and the like. […] After that, 25 μL of the substrate solution was added, and the reaction was carried out at 30° C. for 30 minutes in the dark. After that, 700 μL of a reaction stop solution was added, and the absorbance at 412 nm was measured for this solution. As the coloring solution, the substrate solution, the esterase inhibitor, and the reaction stop solution, those attached to Lipase Kit S (manufactured by SB Bioscience Co., Ltd.) were used. A control was prepared in a new 1.5 mL capacity tube for the purpose of measuring the absorbance of the above samples and reagents themselves. […] After that, 700 μL of reaction stop solution and 25 μL of substrate solution were added, and the absorbance at 412 nm was measured. In addition, blank a was prepared in the same manner as in the activity evaluation except that only DMSO was added instead of the DMSO solution of each sample, and blank b was prepared in the same manner as the control by adding only DMSO (control blank). Absorbance at 412 nm was also measured for blank a and blank b. Digestive lipase activity when each sample was added was calculated by the following equation. Digestive lipase activity (%)=100×(absorbance of each sample−absorbance of control)/(absorbance of blank a−absorbance of blank b) (Results)

[2] = test system: digestive lipase solution (mixture of pancreatic lipase, intestinal lipase, and the like) from rat intestinal acetone powder; test: Test 2: digestive lipase activity inhibition test with mixture of linoleic acid and oleic acid; format: biochemical; conditions: 0.009 mg/mL linoleic acid aqueous solution, final concentration
Description: A control was prepared in a new 1.5 mL capacity tube for the purpose of measuring the absorbance of the above samples and reagents themselves. […] After that, 700 μL of reaction stop solution and 25 μL of substrate solution were added, and the absorbance at 412 nm was measured. […] Absorbance at 412 nm was also measured for blank a and blank b.
First, the digestive lipase activity inhibition rate of each sample was calculated according to the equation shown below.

Digestive lipase activity ([1]; 0.19 mg/mL final concentration, 30° C. 30 minutes): 8.9%
Digestive lipase activity inhibition rate [2]: 9.6%
Compound: CCCCC/C=C\C/C=C\CCCCCCCC(=O)O [linoleic acid]

Digestive lipase activity ([1]; 0.16 mg/mL final concentration, 30° C. 30 minutes): 7.1%
Compound: CCCCCCCC/C=C\CCCCCCCC(=O)O [oleic acid]

Compound: c1cc2c(cc1[C@H]1OC[C@H]3[C@@H]1CO[C@@H]3c1ccc3c(c1)OCO3)OCO2 [sesamin, reference compound]
Digestive lipase activity ([1]; 0.044 mg/mL final concentration, for comparison): 110.9%
